The record followed here is ChEMBL document CHEMBL5647694, “Novel orally bioavailable EZH1/2 dual inhibitors with greater antitumor efficacy than an EZH2 selective inhibitor” (Cancer Sci, 2017).

Molecules are shown by their SMILES.

Assay [1] deals with Receptor tyrosine-protein kinase erbB-2 (Homo sapiens) (UniProt P04626). Description: Inhibition of N-terminal His-tagged human HER2 cytoplasmic domain (676 to 1255 residues) expressed in baculovirus-infected Sf21 cells using Srctide as substrate at 1 uM in presence of ATP by Mobility shift assay.
For assay [2], the target named is Inhibitor of nuclear factor kappa-B kinase subunit beta (Homo sapiens) (UniProt O14920). Nature of the assay: Inhibition of N-terminal His-tagged truncated human IKK-beta (1 to 662 residues) expressed in baculovirus expression system using Modified IkBalpha-derived peptide as substrate at 1 uM in presence of ATP by Mobility shift assay.
Chain of Inhibitor of nuclear factor kappa-B kinase subunit beta (Homo sapiens) (O14920 whole entry, the tested form may be a part): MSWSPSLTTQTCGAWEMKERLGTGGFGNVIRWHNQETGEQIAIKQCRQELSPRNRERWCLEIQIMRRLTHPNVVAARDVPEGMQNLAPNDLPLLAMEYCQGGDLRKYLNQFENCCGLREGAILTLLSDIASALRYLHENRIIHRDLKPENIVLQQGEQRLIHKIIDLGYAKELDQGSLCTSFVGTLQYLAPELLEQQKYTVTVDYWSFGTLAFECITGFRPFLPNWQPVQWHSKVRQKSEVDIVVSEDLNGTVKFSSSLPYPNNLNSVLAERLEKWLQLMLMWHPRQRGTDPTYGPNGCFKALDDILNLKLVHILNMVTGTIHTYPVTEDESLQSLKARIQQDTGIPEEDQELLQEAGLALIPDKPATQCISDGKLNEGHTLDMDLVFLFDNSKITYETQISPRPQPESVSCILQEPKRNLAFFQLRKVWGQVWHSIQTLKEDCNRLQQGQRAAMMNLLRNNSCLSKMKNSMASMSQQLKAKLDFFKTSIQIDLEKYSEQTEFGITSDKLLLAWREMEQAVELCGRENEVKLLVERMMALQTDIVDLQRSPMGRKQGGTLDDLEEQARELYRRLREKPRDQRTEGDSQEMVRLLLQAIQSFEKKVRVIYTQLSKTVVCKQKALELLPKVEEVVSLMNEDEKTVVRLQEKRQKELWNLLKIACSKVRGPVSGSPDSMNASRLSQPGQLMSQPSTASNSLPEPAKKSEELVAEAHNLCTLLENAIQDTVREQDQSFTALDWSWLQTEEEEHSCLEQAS
Assay [3] concerns the target Serine/threonine-protein kinase D3 (Homo sapiens) (UniProt O94806). Description: Inhibition of N-terminal GST-fused full length human PKD3 (1 to 890 residues) expressed in baculovirus expression system using GS peptide as substrate at 1 uM in presence of ATP by Mobility shift assay.
Assay [4] addresses 3-phosphoinositide-dependent protein kinase 1 (PDPK1) (Homo sapiens) (UniProt O15530). Nature of the assay: Inhibition of N-terminal GST-fused full length human PDK1 (1 to 556 residues) expressed in baculovirus expression system using T308tide as substrate at 1 uM in presence of ATP by Mobility shift assay.
The target in assay [5] is Serine/threonine-protein kinase D1 (Homo sapiens) (UniProt Q15139). Nature of the assay: Inhibition of N-terminal GST-fused full length human PKD1 (1 to 912 residues) expressed in baculovirus expression system using GS peptide as substrate at 1 uM in presence of ATP by Mobility shift assay.
The target in assay [6] is Serine/threonine-protein kinase TBK1 (Homo sapiens) (UniProt Q9UHD2). Description: Inhibition of N-terminal GST-fused full length human TBK1 (1 to 729 residues) expressed in baculovirus expression system using CKtide as substrate at 1 uM in presence of ATP by Mobility shift assay.
For assay [7], the target named is BDNF/NT-3 growth factors receptor (Homo sapiens) (UniProt Q16620). Description: Inhibition of N-terminal GST-tagged human TRKB cytoplasmic domain (456 to 822 residues) expressed in baculovirus-infected Sf21 cells using Srctide as substrate at 1 uM in presence of ATP by Mobility shift assay.
The target in assay [8] is Serine/threonine-protein kinase 38 (Homo sapiens) (UniProt Q15208). Nature of the assay: Inhibition of N-terminal GST-fused full length human NDR1 (1 to 465 residues) expressed in baculovirus expression system using SGKtide as substrate at 1 uM in presence of ATP by Mobility shift assay.
In assay [9] the target is AMPK alpha2/beta1/gamma1 (Homo sapiens) (UniProt P54646+P54619+Q9Y478). Nature of the assay: Inhibition of N-terminal GST-tagged full-length human AMPK alpha2 (1 to 552 residues)/N-terminal GST-tagged human AMPK beta1 (1 to 270 residues)/N-terminal GST-tagged human AMPK gamma1 (1 to 331 residues) expressed in baculovirus-infected Sf21 cells using SAMS peptide as substrate at 1 uM in presence of ATP by Mobility shift assay.

In assay [10] the target is TRAF2 and NCK-interacting protein kinase (Homo sapiens) (UniProt Q9UKE5). Description: Inhibition of N-terminal GST-fused human TNIK catalytic domain (1 to 314 residues) expressed in baculovirus expression system using Moesin-derived peptide as substrate at 1 uM in presence of ATP by Mobility shift assay.
Assay [11] addresses Serine/threonine-protein kinase haspin (Homo sapiens) (UniProt Q8TF76). Nature of the assay: Inhibition of N-terminal GST-fused full length human Haspin (1 to 798 residues) expressed in baculovirus expression system using Histone H3 peptide as substrate at 1 uM in presence of ATP by Mobility shift assay.
In assay [12] the target is Aurora kinase A (Homo sapiens) (UniProt O14965). Description: Inhibition of N-terminal GST-fused full length human AurA (1 to 403 residues) expressed in baculovirus-infected Sf21 cells using Kemptide as substrate at 1 uM in presence of ATP by Mobility shift assay.
Chain of Aurora kinase A (Homo sapiens) (O14965 whole entry, the tested form may be a part): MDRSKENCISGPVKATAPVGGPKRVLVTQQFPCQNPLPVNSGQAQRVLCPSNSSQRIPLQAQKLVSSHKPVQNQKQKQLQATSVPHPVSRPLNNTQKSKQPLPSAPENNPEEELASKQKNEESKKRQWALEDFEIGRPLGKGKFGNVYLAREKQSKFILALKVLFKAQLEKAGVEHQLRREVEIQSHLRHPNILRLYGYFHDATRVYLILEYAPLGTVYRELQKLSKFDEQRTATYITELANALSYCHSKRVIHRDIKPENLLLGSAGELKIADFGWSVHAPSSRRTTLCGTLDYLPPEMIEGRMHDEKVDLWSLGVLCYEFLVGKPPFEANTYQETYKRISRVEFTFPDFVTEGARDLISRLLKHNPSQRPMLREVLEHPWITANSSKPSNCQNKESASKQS
In assay [13] the target is Fibroblast growth factor receptor 2 (Homo sapiens) (UniProt P21802). Description: Inhibition of N-terminal GST-fused human FGFR2 cytoplasmic domain (399 to 821 residues) expressed in baculovirus-infected Sf21 cells using CSKtide as substrate at 1 uM in presence of ATP by Mobility shift assay.
Assay [14] addresses Serine/threonine-protein kinase DCLK2 (Homo sapiens) (UniProt Q8N568). Nature of the assay: Inhibition of N-terminal GST-fused truncated human DCAMKL2 (1 to 691 residues) expressed in baculovirus expression system using GS peptide as substrate at 1 uM in presence of ATP by Mobility shift assay.
The target in assay [15] is SRSF protein kinase 3 (Homo sapiens) (UniProt Q9UPE1). Nature of the assay: Inhibition of N-terminal GST-fused full length human MSSK1 (1 to 567 residues) expressed in baculovirus expression system using DYRKtide-F as substrate at 1 uM in presence of ATP by Mobility shift assay.
Assay [16] addresses Cyclin-dependent kinase 2/cyclin E1 (Homo sapiens) (UniProt P24864+P24941). Nature of the assay: Inhibition of N-terminal GST-tagged full length human CDK2 (1 to 298 residues)/N-terminal GST-tagged human CyclinE1 (1 to 410 residues) expressed in baculovirus-infected Sf21 cells using Modified Histone H1 as substrate at 1 uM in presence of ATP by Mobility shift assay.
For assay [17], the target named is Calcium/calmodulin-dependent protein kinase type IV (Homo sapiens) (UniProt Q16566). Nature of the assay: Inhibition of N-terminal GST-tagged full length human CAMK4 (1 to 473 residues) expressed in baculovirus-infected Sf21 cells using GS peptide as substrate at 1 uM in presence of ATP by Mobility shift assay.
Assay [18] has as its target High affinity nerve growth factor receptor (Homo sapiens) (UniProt P04629). Description: Inhibition of N-terminal GST-tagged human TRKA cytoplasmic domain (436 to 790 residues) expressed in baculovirus-infected Sf21 cells using CSKtide as substrate at 1 uM in presence of ATP by Mobility shift assay.
Assay [19] addresses Proto-oncogene tyrosine-protein kinase ROS (Homo sapiens) (UniProt P08922). Nature of the assay: Inhibition of N-terminal GST-tagged human ROS cytoplasmic domain (1883 to 2347 residues) expressed in baculovirus-infected Sf21 cells using IRS1 as substrate at 1 uM in presence of ATP by Mobility shift assay.
Assay [20] concerns the target Rho-associated protein kinase 1 (Homo sapiens) (UniProt Q13464). Nature of the assay: Inhibition of N-terminal GST-fused human ROCK1 catalytic domain (1 to 477 residues) expressed in baculovirus expression system using LIMKtide as substrate at 1 uM in presence of ATP by Mobility shift assay.
The target of assay [21] is Serine/threonine-protein kinase N1 (Homo sapiens) (UniProt Q16512). Nature of the assay: Inhibition of N-terminal GST-fused full length human PKN1 (1 to 942 residues) expressed in baculovirus expression system using S6K peptide as substrate at 1 uM in presence of ATP by IMAP.

Chain of Serine/threonine-protein kinase D3 (Homo sapiens) (O94806 whole entry, the tested form may be a part): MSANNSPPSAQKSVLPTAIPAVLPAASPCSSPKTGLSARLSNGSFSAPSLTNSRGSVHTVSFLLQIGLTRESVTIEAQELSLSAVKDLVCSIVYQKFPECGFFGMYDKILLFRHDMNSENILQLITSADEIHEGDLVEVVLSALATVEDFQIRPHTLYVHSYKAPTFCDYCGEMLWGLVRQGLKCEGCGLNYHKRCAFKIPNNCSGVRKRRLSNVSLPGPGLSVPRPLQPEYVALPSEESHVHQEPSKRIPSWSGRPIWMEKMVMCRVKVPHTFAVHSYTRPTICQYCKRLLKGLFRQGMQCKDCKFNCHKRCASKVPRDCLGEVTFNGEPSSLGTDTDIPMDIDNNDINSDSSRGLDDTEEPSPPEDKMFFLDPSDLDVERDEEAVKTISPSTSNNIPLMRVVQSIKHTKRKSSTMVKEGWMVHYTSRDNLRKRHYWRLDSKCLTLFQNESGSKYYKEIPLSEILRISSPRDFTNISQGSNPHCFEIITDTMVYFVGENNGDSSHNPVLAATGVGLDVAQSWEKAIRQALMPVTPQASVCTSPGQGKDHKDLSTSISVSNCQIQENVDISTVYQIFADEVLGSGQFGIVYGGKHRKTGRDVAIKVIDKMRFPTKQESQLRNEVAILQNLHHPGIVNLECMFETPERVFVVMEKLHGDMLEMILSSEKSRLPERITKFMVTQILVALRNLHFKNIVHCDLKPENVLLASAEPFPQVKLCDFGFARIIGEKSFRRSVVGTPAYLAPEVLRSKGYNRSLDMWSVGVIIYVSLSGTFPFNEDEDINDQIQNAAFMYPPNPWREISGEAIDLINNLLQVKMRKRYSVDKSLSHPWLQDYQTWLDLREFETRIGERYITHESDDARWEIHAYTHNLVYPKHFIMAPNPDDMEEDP
Chain of Serine/threonine-protein kinase haspin (Homo sapiens) (Q8TF76 whole entry, the tested form may be a part): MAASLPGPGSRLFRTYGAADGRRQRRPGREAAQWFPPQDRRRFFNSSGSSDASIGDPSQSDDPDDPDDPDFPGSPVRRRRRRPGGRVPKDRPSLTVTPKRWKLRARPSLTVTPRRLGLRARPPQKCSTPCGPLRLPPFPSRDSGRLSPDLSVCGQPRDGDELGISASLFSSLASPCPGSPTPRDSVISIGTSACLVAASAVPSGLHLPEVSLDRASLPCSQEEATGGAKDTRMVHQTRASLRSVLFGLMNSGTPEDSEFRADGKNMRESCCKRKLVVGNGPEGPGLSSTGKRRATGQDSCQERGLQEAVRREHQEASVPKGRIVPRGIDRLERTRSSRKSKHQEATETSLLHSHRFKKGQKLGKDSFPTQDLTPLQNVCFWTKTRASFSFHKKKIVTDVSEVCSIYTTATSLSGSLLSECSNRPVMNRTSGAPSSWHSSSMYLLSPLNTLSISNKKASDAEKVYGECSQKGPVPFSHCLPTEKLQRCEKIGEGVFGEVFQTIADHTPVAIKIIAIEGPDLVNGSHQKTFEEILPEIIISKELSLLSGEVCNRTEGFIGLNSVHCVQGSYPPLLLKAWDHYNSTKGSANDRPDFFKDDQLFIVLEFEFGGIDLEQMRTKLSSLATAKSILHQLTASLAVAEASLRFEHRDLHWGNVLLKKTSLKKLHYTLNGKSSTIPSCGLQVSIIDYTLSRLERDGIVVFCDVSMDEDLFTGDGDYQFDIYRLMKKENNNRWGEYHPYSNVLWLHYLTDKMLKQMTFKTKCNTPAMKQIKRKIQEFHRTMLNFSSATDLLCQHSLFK
Chain of Rho-associated protein kinase 1 (Homo sapiens) (Q13464 2-1354 limits assumed): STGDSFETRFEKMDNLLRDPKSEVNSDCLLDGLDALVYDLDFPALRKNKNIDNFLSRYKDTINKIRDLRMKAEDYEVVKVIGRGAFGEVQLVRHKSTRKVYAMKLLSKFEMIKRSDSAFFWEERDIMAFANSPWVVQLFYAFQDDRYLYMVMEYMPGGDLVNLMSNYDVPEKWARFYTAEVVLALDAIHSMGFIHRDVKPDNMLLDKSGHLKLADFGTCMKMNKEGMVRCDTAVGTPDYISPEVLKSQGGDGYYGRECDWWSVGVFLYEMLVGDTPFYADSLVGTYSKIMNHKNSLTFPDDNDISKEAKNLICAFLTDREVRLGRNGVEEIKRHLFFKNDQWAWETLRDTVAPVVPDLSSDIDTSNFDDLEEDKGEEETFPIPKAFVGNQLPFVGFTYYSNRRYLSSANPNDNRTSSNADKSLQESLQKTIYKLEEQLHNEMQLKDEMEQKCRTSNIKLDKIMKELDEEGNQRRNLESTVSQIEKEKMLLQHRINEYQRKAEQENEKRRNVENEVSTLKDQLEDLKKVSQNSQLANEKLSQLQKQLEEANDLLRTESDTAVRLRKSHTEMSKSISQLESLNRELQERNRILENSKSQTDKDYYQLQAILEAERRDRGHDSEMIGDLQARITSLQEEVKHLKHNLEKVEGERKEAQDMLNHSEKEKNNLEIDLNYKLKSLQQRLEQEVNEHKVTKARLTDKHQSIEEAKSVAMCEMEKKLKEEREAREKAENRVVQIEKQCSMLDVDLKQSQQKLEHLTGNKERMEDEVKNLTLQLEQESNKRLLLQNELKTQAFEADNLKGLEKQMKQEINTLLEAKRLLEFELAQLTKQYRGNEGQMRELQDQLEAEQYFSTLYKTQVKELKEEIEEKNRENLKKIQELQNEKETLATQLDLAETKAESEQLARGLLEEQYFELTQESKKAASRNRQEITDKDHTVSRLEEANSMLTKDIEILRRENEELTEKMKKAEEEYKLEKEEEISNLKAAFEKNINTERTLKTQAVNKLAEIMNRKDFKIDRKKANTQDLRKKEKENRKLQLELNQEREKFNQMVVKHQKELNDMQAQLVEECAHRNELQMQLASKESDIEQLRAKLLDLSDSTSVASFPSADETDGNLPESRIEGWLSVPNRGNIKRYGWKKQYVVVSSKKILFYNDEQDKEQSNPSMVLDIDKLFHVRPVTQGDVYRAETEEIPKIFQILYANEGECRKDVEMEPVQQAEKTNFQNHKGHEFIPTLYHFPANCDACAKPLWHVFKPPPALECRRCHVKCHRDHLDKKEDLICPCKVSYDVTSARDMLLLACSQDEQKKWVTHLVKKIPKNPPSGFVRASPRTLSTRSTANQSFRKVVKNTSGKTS
Chain of Serine/threonine-protein kinase DCLK2 (Homo sapiens) (Q8N568 whole entry, the tested form may be a part): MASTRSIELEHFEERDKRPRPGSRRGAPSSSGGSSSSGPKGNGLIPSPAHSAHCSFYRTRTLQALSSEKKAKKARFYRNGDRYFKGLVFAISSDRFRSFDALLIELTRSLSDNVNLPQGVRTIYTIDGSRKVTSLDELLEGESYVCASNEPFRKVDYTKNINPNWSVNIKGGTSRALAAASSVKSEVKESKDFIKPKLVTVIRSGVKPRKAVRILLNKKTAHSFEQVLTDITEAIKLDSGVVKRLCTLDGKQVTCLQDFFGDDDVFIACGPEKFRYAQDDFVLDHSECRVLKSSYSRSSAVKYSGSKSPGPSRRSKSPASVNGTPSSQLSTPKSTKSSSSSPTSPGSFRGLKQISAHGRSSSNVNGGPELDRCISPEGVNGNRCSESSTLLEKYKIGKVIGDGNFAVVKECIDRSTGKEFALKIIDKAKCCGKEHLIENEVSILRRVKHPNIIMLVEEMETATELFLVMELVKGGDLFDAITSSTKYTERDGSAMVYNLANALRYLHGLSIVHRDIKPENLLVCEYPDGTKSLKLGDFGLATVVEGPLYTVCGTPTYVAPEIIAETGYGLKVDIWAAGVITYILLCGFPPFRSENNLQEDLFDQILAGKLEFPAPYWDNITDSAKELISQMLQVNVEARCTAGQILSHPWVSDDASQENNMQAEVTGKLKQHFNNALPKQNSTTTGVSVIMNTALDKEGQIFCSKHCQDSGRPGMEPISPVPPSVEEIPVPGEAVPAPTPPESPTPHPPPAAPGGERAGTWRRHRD

As to `Cc1cc(C)c(CNC(=O)c2cc(Br)c3c(c2C)O[C@@](C)([C@H]2CC[C@H](N(C)C)CC2)O3)c(=O)[nH]1`, the inhibition is 6% in [1]; 2.1% in assay [2]; 6.7% in [3]; -5.4% in [4]; -6.9% in [5]; -4.6% in assay [6]. Also, the inhibition is -2.8% in assay [7]; -2.6% in assay [8]; -1.2% in assay [9]; 1.1% in [10]; 6.5% in assay [11]; 0.6% in assay [12]. Also, the inhibition is -2.6% in assay [13]; -2.7% in assay [14]; -6.3% in assay [15]; 19.9% in assay [16]; -2.9% in [17]; -5.1% in [18]. Besides, the inhibition in [19] is -2.1%; in assay [20] it was 3%; in [21] it was 6.7%.

`Cc1cc(C)c(CNC(=O)c2cc(Cl)c3c(c2C)O[C@@](C)([C@H]2CC[C@H](N(C)C)CC2)O3)c(=O)[nH]1` [VALEMETOSTAT]: the inhibition in assay [1] was 5.6%; in assay [2], -1.8%; in assay [3] it was 3.5%; in assay [4], -5.9%; in assay [5] it was -6.9%; in assay [6], -2.6%. In addition, the inhibition in [7] is 0.6%; in assay [8], -0.5%; in assay [9] it was -0.7%; in assay [10] it was 0.3%; in assay [11] it was 12.2%; in assay [12], -0.5%. Moreover, the inhibition in assay [13] was -4%; in [14] it was -5.4%; in assay [15] it was -5.4%; in [16] it was -2.1%; in [17] it was -7.2%; in assay [18] it was -5.7%. Also, the inhibition in [19] was -0.9%; in assay [20], -2.5%; in assay [21], 8.3%.
